Tests used:
[1] = system: Wistar strain rats; assay: Anti-ulcer activity, Indomethacin-induced ulcers, oral (ED50); assay type: in vivo, Wistar strain rats (male); conditions: Rattus norvegicus, 1 h before Indomethacin 25 mg/kg p.o., ulcer lengths after 5 h, dose giving 50% of control
Text: On the other hand, Indomethacin alone was orally administered to a control group at the same dose.

[2] = Acute toxicity, intraperitoneal; conditions: mouse, in vivo, ip
Experimental: Each of the compounds of the Test Compound Nos. 2, 3, 4, 5, 6, 17, 23, 30 and 31 was intraperitoneally administered to ddY strain mice (.male., body wt. 23±2 g, 10 mice per group), and the LD50 values were measured to find that all of them were 600 mg/kg or more.

[3] = system: Wistar strain rats; assay: Anti-ulcer activity, Indomethacin-induced ulcers, intraperitoneal (inhibition percentage); assay type: in vivo, Wistar strain rats (male); conditions: 50 mg/kg intraperitoneal, 1 h before Indomethacin 25 mg/kg p.o., ulcer lengths after 5 h; for inhibition in vivo at 50 mg/kg: Rattus norvegicus, ip
Experimental: On the other hand, Indomethacin alone was orally administered to a control group at the same dose. After 5 hours, the stomach of each rat was removed, and then the sum total of the lengths of the ulcers was measured and compared with that measured for the control group, whereby the inhibition percentage was calculated.

CCCN(CCC)C(=O)C(CCC(=O)NC)NC(=O)/C=C/c1ccco1 (racemic) [Test Compound 1, DL-2-[β-(2-furyl)acrylamido]-N^5-methyl-N^1,N^1-di(n-propyl)pentane-1,5-diamide]
ED50 [1]: 6.6 mg/kg

CCCN(CCC)C(=O)C(CCC(=O)N(C)C)NC(=O)/C=C/c1ccco1 (racemic) [Test Compound 2, DL-2-[β-(2-furyl)acrylamido]-N^5,N^5-dimethyl-N^1,N^1-di(n-propyl)-pentane-1,5-diamide]
ED50 [1]: 9 mg/kg
LD50 ([2]; intraperitoneal, ddY male mice): ≥ 600 mg/kg

CN(C)C(=O)CCC(NC(=O)/C=C/c1ccco1)C(=O)N(C)C (racemic) [Test Compound 3, DL-2-[β-(2-furyl)acrylamido]-N^1,N^1,N^5,N^5-tetramethyl-pentane-1,5-diamide]
ED50 [1]: 10.8 mg/kg
LD50 ([2]; intraperitoneal, ddY male mice): ≥ 600 mg/kg

CN(C)C(=O)CCC(NC(=O)/C=C/c1cc2ccccc2o1)C(=O)N(C)C (racemic) [Test Compound 4]
LD50 ([2]; intraperitoneal, ddY male mice): ≥ 600 mg/kg

CCCN(CCC)C(=O)C(CCC(=O)N(C)C)NC(=O)/C=C/c1cc2ccccc2o1 (racemic) [Test Compound 5, DL-2-[β-(2-benzofuryl)acrylamido]-N^5,N^5-dimethyl-N^1,N^1-di(n-propyl)-pentane-1,5-diamide]
LD50 [2]: ≥ 600 mg/kg

CN(C)C(=O)CCC(NC(=O)/C=C/c1cc2ccccc2o1)C(=O)N1CCCCC1 (racemic) [Test Compound 6]
LD50 ([2]; intraperitoneal, ddY male mice): ≥ 600 mg/kg

CCCN(CCC)C(=O)C(CCC(=O)O)NC(=O)c1ccccc1 (stereo not shown) [Proglumide, reference compound]
ED50 [1]: 800 mg/kg
inhibition in vivo at 50 mg/kg [3]: 0%

CCCN(CCC)C(=O)[C@H](CCC(=O)N(C)C)NC(=O)C1CCC(CN)CC1 (stereo partly shown) [compound 9]
inhibition in vivo at 50 mg/kg [3]: 59%

CCCN(CCC)C(=O)[C@H](CCC(=O)N(C)C)NC(=O)CN1CCN(C)CC1 [compound 10]
inhibition in vivo at 50 mg/kg [3]: 55%

CCCN(CCC)C(=O)[C@H](CCC(=O)N(C)C)NC(=O)CCN1CCN(C)CC1 [compound 11]
inhibition in vivo at 50 mg/kg [3]: 41%

CCCN(CCC)C(=O)[C@H](CCC(=O)N(C)C)NC(=O)CCCN1CCN(C)CC1 [compound 12]
inhibition in vivo at 50 mg/kg [3]: 47%

CCCN(CCC)C(=O)[C@H](CCC(=O)N(C)C)NC(=O)CCCN1CCN(CC)CC1 [compound 13]
inhibition in vivo at 50 mg/kg [3]: 55%

CCCN(CCC)C(=O)[C@H](CCC(=O)N(C)C)NC(=O)CCCN1CCN(c2ccccc2)CC1 [compound 14]
inhibition in vivo at 50 mg/kg [3]: 52%

CCCN(CCC)C(=O)[C@H](CCC(=O)N(C)C)NC(=O)CCCN1CCC(NC(=O)OCc2ccccc2)CC1 [compound 15]
inhibition in vivo at 50 mg/kg [3]: 51%

CCCN(CCC)C(=O)[C@H](CCC(=O)N(C)C)NC(=O)/C=C/C(=O)c1ccc(OC)c(OC)c1 [compound 16]
inhibition in vivo at 50 mg/kg [3]: 59%

CCCCNC(=O)CCC(NC(=O)/C=C/c1ccco1)C(=O)NCCCC (stereo not shown) [compound 17]
LD50 ([2]; intraperitoneal, ddY male mice): ≥ 600 mg/kg
inhibition in vivo at 50 mg/kg [3]: 32.1%

CC(C)CNC(=O)CCC(NC(=O)/C=C/c1ccco1)C(=O)NCC(C)C (stereo not shown) [compound 18]
inhibition in vivo at 50 mg/kg [3]: 37.9%

CC(=O)OCCCNC(=O)CCC(NC(=O)/C=C/c1ccco1)C(=O)NCCCOC(C)=O (stereo not shown) [compound 19]
inhibition in vivo at 50 mg/kg [3]: 53%

CCCNC(=O)C(CCC(=O)NCCCOC(C)=O)NC(=O)/C=C/c1ccco1 (stereo not shown) [compound 20]
inhibition in vivo at 50 mg/kg [3]: 53.5%

CCCNC(=O)C(CCC(N)=O)NC(=O)/C=C/c1ccco1 (stereo not shown) [compound 21]
inhibition in vivo at 50 mg/kg [3]: 70.9%

O=C(/C=C/c1ccco1)NC(CCC(=O)NCCCl)C(=O)NCCCl (stereo not shown) [compound 22]
inhibition in vivo at 50 mg/kg [3]: 56%

CC(C)NC(=O)CCC(NC(=O)/C=C/c1ccco1)C(=O)NC(C)C (stereo not shown) [compound 23]
LD50 ([2]; intraperitoneal, ddY male mice): ≥ 600 mg/kg
inhibition in vivo at 50 mg/kg [3]: 52%

CCCN(CCC)C(=O)CCC(NC(=O)/C=C/c1ccco1)C(=O)N(CCC)CCC (stereo not shown) [compound 30]
LD50 ([2]; intraperitoneal, ddY male mice): ≥ 600 mg/kg

CCCCN(CCCC)C(=O)CCC(NC(=O)/C=C/c1ccco1)C(=O)N(CCCC)CCCC (stereo not shown) [compound 31]
LD50 ([2]; intraperitoneal, ddY male mice): ≥ 600 mg/kg

DL-N^1,N^5-bis(3-acetoxypropyl)-2-[β-(2-furyl)acrylamido]pentane-1,5-diamide [Test Compound 19]
Inhibition percentage [3]: 40%

DL-N^5 -(3-acetoxypropyl)-2-[β-(2-furyl)acrylamido]-N^1 -n-propylpentane-1,5-diamide [Test Compound 20]
Inhibition percentage [3]: 52%

Reference: patent publication US4610983A, “N-acyl acidic amino acid diamide derivative, a salt thereof, and an anti-ulcer agent containing the same” (Toyama Chemical Co., Ltd., priority 1984, dated 1986)
